Consider five molecules from patent publication US9556165B2 (priority 2012, dated 2017).

In brackets after ≈: the same amount, converted by molar mass. Where two headings read alike, the source gives them in different places.

Holding throughout (type): cell-based
Experiment [1] relates to E. cloacae 34654. Kind of experiment: MIC determination, broth microdilution (CLSI). To be noted: Enterobacter cloacae, 34654, strain 3. In general terms: Broth dilution looks for growth in wells or tubes with falling amounts of substance.
The subject of experiment [2] is P. aeruginosa PAO1. The experiment can be described thus: MIC determination, broth microdilution (CLSI). The following applies: Pseudomonas aeruginosa, PAO1, strain 6.
Experiment [3] has as its system P. aeruginosa 2297-con (AmpC derepressed). The experiment can be described thus: MIC determination, broth microdilution (CLSI). To be noted: Pseudomonas aeruginosa, read-out: strain 8 MIC, strain 8.
The test system of experiment [4] is C. perfringens DSM756. Kind of experiment: microbe, parasite or virus in culture. The following applies: Clostridium perfringens, DSM756, read-out: MIC strain 16 (C. perfringens DSM756), strain 16; broth microdilution.
For experiment [5], the system named is K. pneumoniae 60. The experiment can be described thus: MIC determination, broth microdilution (CLSI). To be noted: Klebsiella pneumoniae, 60, strain 2.
The test system of experiment [6] is E. coli J62-TEM-3. The experiment can be described thus: MIC determination, broth microdilution (CLSI). The following applies: Escherichia coli, J62TEM3, read-out: MIC strain 18 (E. coli J62-TEM-3), strain 18; broth microdilution.
The test system of experiment [7] is M. morganii 126/3048. The experiment can be described thus: MIC determination, broth microdilution (CLSI). To be noted: Morganella morganii, 126/3048, strain 5.
Experiment [8] has as its system S. maltophilia ICB7569. Kind of experiment: MIC determination, broth microdilution (CLSI). The following applies: Stenotrophomonas maltophilia, ICB7569, strain 10.
The subject of experiment [9] is Bacteria. Kind of experiment: MIC determination in combination with β-lactamase inhibitors (constant 4 μg/mL).
Experiment [10] deals with A. baumannii ATCC15308. The experiment can be described thus: MIC determination, broth microdilution (CLSI). The following applies: Acinetobacter baumannii, ATCC15308, strain 9.
The subject of experiment [11] is B. fragilis 6688. Kind of experiment: MIC determination, broth microdilution (CLSI). The following applies: Bacteroides fragilis, 6688, strain 15; broth microdilution; read-out: MIC strain 15 (B. fragilis 6688).
Experiment [12] concerns H. influenzae ATCC 49247. The experiment can be described thus: MIC determination, broth microdilution (CLSI). The following applies: Haemophilus influenzae, ATCC49247, strain 12; broth microdilution; read-out: MIC strain 12 (H. influenzae ATCC 49247).
Experiment [13] has as its system E. coli J62. The experiment can be described thus: MIC determination, broth microdilution (CLSI). To be noted: Escherichia coli, J62, strain 17; broth microdilution; read-out: MIC strain 17 (E. coli J62).
Experiment [14] deals with S. pneumoniae 113. The experiment can be described thus: MIC determination, broth microdilution (CLSI). The following applies: Streptococcus pneumoniae, 113, strain 13; broth microdilution; read-out: MIC strain 13 (S. pneumoniae 113).
For experiment [15], the system named is C. freundii K21/3034. The experiment can be described thus: MIC determination, broth microdilution (CLSI). The following applies: Citrobacter freundii, K21/3034, strain 4.
Experiment [16] has as its system S. aureus 133. Kind of experiment: MIC determination, broth microdilution (CLSI).
Experiment [17] concerns P. aeruginosa 2297 (AmpC wt). Kind of experiment: MIC determination, broth microdilution (CLSI). To be noted: Pseudomonas aeruginosa, strain 7.
Experiment [18] relates to E. coli ATCC25922. Kind of experiment: MIC determination, broth microdilution (CLSI). The following applies: Escherichia coli, ATCC25922, strain 1.
[19] abbreviates: Staphylococcus aureus, 133, strain 11, read-out: strain 11 MIC.
Setting [20] is: Staphylococcus aureus, 133, strain 14, broth microdilution, read-out: MIC strain 14 (S. aureus 133).

`CC1(C)[C@H](NC(=O)/C(=N\OCCOc2ccc(C(=N)NC(CN)CN)cc2)c2csc(N)n2)C(=O)N1OS(=O)(=O)O` [Example 84, (2Z)-2-(2-Amino-1,3-thiazol-4-yl)-2-[(2-{4-[N-(1,3-diaminopropan-2-yl)carbamimidoyl]phenoxy}ethoxy)imino]-N-[(3S)-2,2-dimethyl-4-oxo-1-(sulfooxy)azetidin-3-yl]ethanamide]: the MIC is 0.125 µg/mL (≈ 0.204 µM) in experiment [1]; 1 µg/mL (≈ 1.63 µM) in experiment [2]; 2 µg/mL (≈ 3.26 µM) in [3]; 2 µg/mL (≈ 3.26 µM) in experiment [4]; 0.125 µg/mL (≈ 0.204 µM) in experiment [5]; 4 µg/mL (≈ 6.52 µM) in experiment [6]. In addition, the MIC in experiment [7] is 0.25 µg/mL (≈ 0.407 µM); in experiment [8], 32 µg/mL (≈ 52.1 µM); in experiment [10], 1 µg/mL (≈ 1.63 µM); in experiment [11], 4 µg/mL (≈ 6.52 µM); in experiment [12], not above 0.063 µg/mL; in [13], 0.125 µg/mL (≈ 0.204 µM). The MIC in experiment [14] was not above 0.063 µg/mL; in experiment [15] it was not above 0.063 µg/mL; in experiment [16] (setting [19]), not above 0.063 µg/mL; in experiment [16] (setting [20]), 2 µg/mL (≈ 3.26 µM); in [17] it was 2 µg/mL (≈ 3.26 µM); in experiment [18], not above 0.063 µg/mL. In addition, the “MIC strain 19 (E. coli J62-TEM-3 + 4 μg/mL clavulanic acid)” value in experiment [9] was “≦0.063 mg/L”. Also, the “MIC strain 20 (E. coli J62-TEM-3 + 4 μg/mL sulbactam)” value in [9] worked out at 0.125 µg/mL. The “MIC strain 21 (E. coli J62-TEM-3 + 4 μg/mL tazobactam)” value in experiment [9] came to 0.125 µg/mL.

As for `CC1(C)[C@H](NC(=O)/C(=N\OCCOc2ccc(C(=N)N[C@H](CN)CO)cc2)c2csc(N)n2)C(=O)N1OS(=O)(=O)O` [Example 85, (2Z)-2-{[2-(4-{N-[(2R)-1-Amino-3-hydroxypropan-2-yl]carbamimidoyl}phenoxy)ethoxy]imino}-2-(2-amino-1,3-thiazol-4-yl)-N-[(3S)-2,2-dimethyl-4-oxo-1-(sulfooxy)azetidin-3-yl]ethanamide], the MIC was 0.5 µg/mL (≈ 0.813 µM) in experiment [1]; 4 µg/mL (≈ 6.51 µM) in experiment [2]; 8 µg/mL (≈ 13 µM) in experiment [3]; 4 µg/mL (≈ 6.51 µM) in experiment [4]; 0.5 µg/mL (≈ 0.813 µM) in experiment [5]; 8 µg/mL (≈ 13 µM) in [6]. In addition, the MIC was 0.25 µg/mL (≈ 0.407 µM) in experiment [7]; 32 µg/mL (≈ 52.1 µM) in experiment [8]; 2 µg/mL (≈ 3.25 µM) in experiment [10]; 4 µg/mL (≈ 6.51 µM) in experiment [11]; not above 0.063 µg/mL in experiment [12]; 0.5 µg/mL (≈ 0.813 µM) in experiment [13]. Further, the MIC in experiment [14] is not above 0.063 µg/mL; in experiment [15], 0.25 µg/mL (≈ 0.407 µM); in experiment [16] (setting [19]), not above 0.063 µg/mL; in experiment [16] (setting [20]), 8 µg/mL (≈ 13 µM); in experiment [17], 8 µg/mL (≈ 13 µM); in [18], 0.25 µg/mL (≈ 0.407 µM). Besides, the “MIC strain 19 (E. coli J62-TEM-3 + 4 μg/mL clavulanic acid)” value in experiment [9] was 0.25 µg/mL. For the same molecule, the “MIC strain 20 (E. coli J62-TEM-3 + 4 μg/mL sulbactam)” value in [9] came out at 0.25 µg/mL. Further, in experiment [9], the “MIC strain 21 (E. coli J62-TEM-3 + 4 μg/mL tazobactam)” value is 0.5 µg/mL.

As to `CC1(C)[C@H](NC(=O)/C(=N\OCCOc2ccc(C3=NCC(N)CN3)cc2)c2csc(N)n2)C(=O)N1OS(=O)(=O)O` (stereo partly drawn) [Example 86, (2Z)-2-({2-[4-(5-Amino-1,4,5,6-tetrahydropyrimidin-2-yl)phenoxy]ethoxy}imino)-2-(2-amino-1,3-thiazol-4-yl)-N-[(3S)-2,2-dimethyl-4-oxo-1-(sulfooxy)azetidin-3-yl]ethanamide], the MIC in [1] worked out at 0.5 µg/mL (≈ 0.838 µM); in [2], 4 µg/mL (≈ 6.7 µM); in experiment [3], 8 µg/mL (≈ 13.4 µM); in experiment [4], 2 µg/mL (≈ 3.35 µM); in experiment [5], 0.5 µg/mL (≈ 0.838 µM); in experiment [6], 16 µg/mL (≈ 26.8 µM). For the same molecule, the MIC was 0.5 µg/mL (≈ 0.838 µM) in experiment [7]; 32 µg/mL (≈ 53.6 µM) in experiment [8]; 2 µg/mL (≈ 3.35 µM) in [10]; 4 µg/mL (≈ 6.7 µM) in [11]; not above 0.063 µg/mL in [12]; 0.25 µg/mL (≈ 0.419 µM) in experiment [13]. Moreover, the MIC was not above 0.063 µg/mL in experiment [14]; 0.25 µg/mL (≈ 0.419 µM) in experiment [15]; not above 0.063 µg/mL in experiment [16] (setting [19]); 4 µg/mL (≈ 6.7 µM) in experiment [16] (setting [20]); 8 µg/mL (≈ 13.4 µM) in experiment [17]; 0.25 µg/mL (≈ 0.419 µM) in [18]. In addition, the “MIC strain 19 (E. coli J62-TEM-3 + 4 μg/mL clavulanic acid)” value in experiment [9] came out at 0.25 µg/mL. The “MIC strain 20 (E. coli J62-TEM-3 + 4 μg/mL sulbactam)” value in experiment [9] is 0.25 µg/mL. Further, the “MIC strain 21 (E. coli J62-TEM-3 + 4 μg/mL tazobactam)” value in experiment [9] stood at 0.5 µg/mL.

`CC1(C)[C@H](NC(=O)/C(=N\O[C@@H](COc2ccc(C(=N)N[C@@H]3CCCNC3)cc2)C(=O)O)c2csc(N)n2)C(=O)N1OS(=O)(=O)O` [Example 88, (2S)-2-({[(1Z)-1-(2-Amino-1,3-thiazol-4-yl)-2-{[(3S)-2,2-dimethyl-4-oxo-1-(sulfooxy)azetidin-3-yl]amino}-2-oxoethylidene]amino}oxy)-3-(4-{N-[(3R)-piperidin-3-yl]carbamimidoyl}phenoxy)propanoic acid]: the MIC in experiment [1] is not above 0.063 µg/mL; in experiment [2], 1 µg/mL (≈ 1.5 µM); in experiment [3], 1 µg/mL (≈ 1.5 µM); in experiment [4], 0.5 µg/mL (≈ 0.748 µM); in experiment [5], 0.125 µg/mL (≈ 0.187 µM); in experiment [6], 2 µg/mL (≈ 2.99 µM). Besides, the MIC in [7] is not above 0.063 µg/mL; in experiment [8], 4 µg/mL (≈ 5.98 µM); in experiment [10] it was 2 µg/mL (≈ 2.99 µM); in experiment [11], 8 µg/mL (≈ 12 µM); in experiment [12], not above 0.063 µg/mL; in experiment [13] it was 0.125 µg/mL (≈ 0.187 µM). The MIC is 0.5 µg/mL (≈ 0.748 µM) in [14]; not above 0.063 µg/mL in [15]; 32 µg/mL (≈ 47.9 µM) in experiment [16] (setting [20]); 1 µg/mL (≈ 1.5 µM) in experiment [17]; not above 0.063 µg/mL in experiment [18]. In addition, the “MIC strain 19 (E. coli J62-TEM-3 + 4 μg/mL clavulanic acid)” value in experiment [9] was “≦0.063 mg/L”. Besides, the “MIC strain 20 (E. coli J62-TEM-3 + 4 μg/mL sulbactam)” value in [9] is “≦0.063 mg/L”. Also, the “MIC strain 21 (E. coli J62-TEM-3 + 4 μg/mL tazobactam)” value in experiment [9] is “≦0.063 mg/L”.

As to `CC1(C)[C@H](NC(=O)/C(=N\OCCOc2ccc(C3=NCC(CN)N3)cc2)c2csc(N)n2)C(=O)N1OS(=O)(=O)O` (stereo partly drawn) [Example 91, (2Z)-2-[(2-{4-[5-(Aminomethyl)-4,5-dihydro-1H-imidazol-2-yl]phenoxy}ethoxy)imino]-2-(2-amino-1,3-thiazol-4-yl)-N-[(3S)-2,2-dimethyl-4-oxo-1-(sulfooxy)azetidin-3-yl]ethanamide], the MIC turned out to be 0.25 µg/mL (≈ 0.419 µM) in experiment [1]; 2 µg/mL (≈ 3.35 µM) in [2]; 2 µg/mL (≈ 3.35 µM) in experiment [3]; 2 µg/mL (≈ 3.35 µM) in [4]; 0.125 µg/mL (≈ 0.21 µM) in [5]; 4 µg/mL (≈ 6.7 µM) in [6]. For the same molecule, the MIC was 0.25 µg/mL (≈ 0.419 µM) in [7]; 16 µg/mL (≈ 26.8 µM) in experiment [8]; 1 µg/mL (≈ 1.68 µM) in experiment [10]; 4 µg/mL (≈ 6.7 µM) in experiment [11]; not above 0.063 µg/mL in experiment [12]; 0.125 µg/mL (≈ 0.21 µM) in experiment [13]. Also, the MIC is not above 0.063 µg/mL in experiment [14]; 0.125 µg/mL (≈ 0.21 µM) in experiment [15]; not above 0.063 µg/mL in experiment [16] (setting [19]); 2 µg/mL (≈ 3.35 µM) in experiment [16] (setting [20]); 4 µg/mL (≈ 6.7 µM) in experiment [17]; 0.125 µg/mL (≈ 0.21 µM) in experiment [18]. Moreover, in experiment [9], the “MIC strain 19 (E. coli J62-TEM-3 + 4 μg/mL clavulanic acid)” value was determined as 0.125 µg/mL. In addition, the “MIC strain 20 (E. coli J62-TEM-3 + 4 μg/mL sulbactam)” value in experiment [9] was 0.125 µg/mL. Further, in experiment [9], the “MIC strain 21 (E. coli J62-TEM-3 + 4 μg/mL tazobactam)” value was 0.125 µg/mL.
